According to ChEMBL document CHEMBL2095176, “GSK Tuberculosis Screening Data”:
≈ marks a conversion by molar mass, not a printed value.

Test system: Mycobacterium tuberculosis variant bovis BCG
Assay: microbe, parasite or virus in culture
Assay type: functional

| SMILES | MIC90 [µM] |
| --- | --- |
| CCN(CC)c1ccc(-c2nn3c(-c4n[nH]c5c4CCC5)nnc3s2)cc1 | 7 (≈ 2.66 µg/mL) |
| Nc1ccc(C(=O)C(=O)c2ccc(N)cc2)cc1 | 0.4 (≈ 0.0961 µg/mL) |
| CNc1nc(SC)nc2ccccc12 | 0.3 (≈ 0.0616 µg/mL) |
| COc1ccc(Nc2ccccc2N)cc1 | 1.1 (≈ 0.236 µg/mL) |
| CCCCCNc1nc(N2CCCC2)c2c(c1C#N)CCN(C)C2 | 1.6 (≈ 0.524 µg/mL) |
| O=C(Nc1nnc(-c2ccc(Br)cc2)o1)c1cccc(C(F)(F)F)c1 | 1.5 (≈ 0.618 µg/mL) |
| CC(C)Sc1ccc(C(=O)Nc2nc(-c3ccccn3)cs2)cc1 | 1.2 (≈ 0.427 µg/mL) |
| COc1ccc(-c2cncc(-c3cc(N4CCN(CCO)CC4)nc(-c4ccccc4)n3)c2)cc1 | 7.9 (≈ 3.69 µg/mL) |
| COc1ccc(CCNC(=O)c2nc(-c3ccc(OC)c(OC)c3)no2)cc1OC | 1.5 (≈ 0.62 µg/mL) |
| CN(C)c1nc2scc(-c3ccccc3)c2c(=O)o1 | 1.5 (≈ 0.408 µg/mL) |
| Clc1ccc(CCNc2cc(-c3ccccc3)nc3ncnn23)cc1 | 4 (≈ 1.4 µg/mL) |
| CCOC(=O)CC[C@H](NC(=O)c1ccc(S(=O)(=O)Nc2ccc3nc(N)[nH]c(=O)c3c2)cc1)C(=O)OCC | 2.4 (≈ 1.31 µg/mL) |
| CCCCOc1ccc(C(=O)Nc2nc(-c3ccccn3)cs2)cc1 | 1.6 (≈ 0.566 µg/mL) |
| CC(c1nc2ccccc2s1)N(C)C(=O)c1ccc2c(c1)CC(c1ccccc1)OC2=O (configuration not stated) | 1.6 (≈ 0.708 µg/mL) |
| COc1ccc(-c2ccc(Nc3cccc(S(=O)(=O)CCNC4CCC4)c3)nc2)cn1 | 1.6 (≈ 0.702 µg/mL) |
| Cc1ccc(C)c(-c2nnc(NC(=O)c3ccc(Br)s3)o2)c1 | 1.6 (≈ 0.605 µg/mL) |
| CC(=O)Nc1cc(C(=O)Nc2ccc(C3=NCCN3)cc2)ccc1C(=O)Nc1ccc(C2=NCCN2)cc1 | 1.6 (≈ 0.815 µg/mL) |
| CC(Sc1nc2ccccc2[nH]1)C(=O)NNC(=O)c1ccncc1 (configuration not stated) | 1.6 (≈ 0.546 µg/mL) |
| Cl.Cl.O=C(Nc1ccc(NC2=NCCN2)cc1)c1ccc(C(=O)Nc2ccc(NC3=NCCN3)cc2)cc1 | 0.4 |
| COc1ccc(-c2nsc(SCC(=O)N3CCCC3)n2)cc1 | 5.6 (≈ 1.88 µg/mL) |
| CN(Cc1nc2ccccc2s1)C(=O)c1cccc(NC(=O)c2ccncc2)c1 | 1.7 (≈ 0.684 µg/mL) |
| Cc1cc(C)c2cc(CN(Cc3cccnc3)C(=O)c3ccccc3F)c(Cl)nc2c1 | 1.7 (≈ 0.738 µg/mL) |
| CC(C)(C)c1ccc(-c2nnc(SCC(=O)OC3CCCCC3)o2)cc1 | 8.1 (≈ 3.03 µg/mL) |
| O=C(O)C(F)(F)F.c1ccc(C[C@H]2CN(c3nccc(Oc4ccc(-n5ccnc5)cc4)n3)CCN2)cc1 | 8.2 |
| O=C(Nc1nc(-c2ccccn2)cs1)c1ccno1 | 1.8 (≈ 0.49 µg/mL) |

| SMILES | MIC90 [µM] |
| --- | --- |
| COc1ccc(O)c(C(=O)c2cnn(C(=O)c3cccs3)c2)c1 | 1.8 (≈ 0.591 µg/mL) |
| FC(F)(F)c1ccc2c(N3CCCNCC3)ncc(-c3ccsc3)c2n1 | 1.8 (≈ 0.681 µg/mL) |
| N#Cc1nc(-c2ccc(F)cc2)oc1S(=O)(=O)c1ccc(Br)cc1 | 1.8 (≈ 0.733 µg/mL) |
| O=C(Nc1ccc(C(=O)N2CCCCC2c2nc3ccccc3s2)cc1)c1ccco1 (configuration not stated) | 0.1 (≈ 0.0432 µg/mL) |
| O=C(Nc1cccc(C(=O)N2CCCCC2c2nc3ccccc3s2)c1)c1cccs1 (configuration not stated) | 0.1 (≈ 0.0448 µg/mL) |
| O=C(Nc1ccccc1-c1nc(Cl)cs1)OCCC1CCCCN1 (configuration not stated) | 0.2 (≈ 0.0732 µg/mL) |
| O=C(NCc1ccc(Oc2ccccc2)cc1)c1c(C(F)(F)F)nc2ccccn12 | 0.2 (≈ 0.0823 µg/mL) |
| Cc1ccc2nc(C)c(C(=O)NCc3cccs3)n2c1 | 0.5 (≈ 0.143 µg/mL) |
| Nc1cccnc1Nc1ccc(Cl)cc1 | 1.1 (≈ 0.242 µg/mL) |
| CC(c1nc2ccccc2s1)N(C)C(=O)c1cccc(NC(=O)c2cccs2)c1 (configuration not stated) | 0.3 (≈ 0.126 µg/mL) |
| CCC(C)CC(=O)Nc1nc2c(s1)C(=O)CC(C(=O)N(C)Cc1cccc3ncccc13)C2 (configuration not stated) | 0.3 (≈ 0.139 µg/mL) |
| COc1ccc2nc(C)cc(OCC(=O)Nc3cc(C)cc(C)c3)c2c1 | 0.5 (≈ 0.175 µg/mL) |
| O=C(C=Cc1cccs1)N1CCN(Cc2ccc3c(c2)OCO3)CC1 | 1.7 (≈ 0.606 µg/mL) |
| Cc1cccc(-c2nc(Nc3ccncn3)c3c(C)csc3n2)n1 | 0.3 (≈ 0.1 µg/mL) |
| Nc1nc2cc(-c3cncc(Oc4ccc(F)cc4)c3)ccc2[nH]1.O=C(O)C(F)(F)F.O=C(O)C(F)(F)F | 6.2 |
| COc1ccc(S(=O)(=O)N(C)C)cc1C(=O)N[C@H]1CCN2CC(c3ccccc3)C[C@H]2C1 (some centres not stated) | 0.4 (≈ 0.183 µg/mL) |
| COCc1nc(N2CCCNCC2)c2c(C)nn(-c3cccc(Cl)c3)c2n1 | 0.4 (≈ 0.155 µg/mL) |
| COc1ccccc1NC(=O)CN(Cc1ccco1)C(=O)c1cccc(NC(=O)c2cccs2)c1 | 0.4 (≈ 0.196 µg/mL) |
| Cc1cc(Cl)cc(C(=O)c2c(C(C)C)c(=O)[nH]c(=O)n2Cc2cc(F)nc(F)c2)c1 | 0.4 (≈ 0.174 µg/mL) |
| Cc1nc2ccccn2c1C(=O)NCc1ccc(Cl)cc1 | 2 (≈ 0.6 µg/mL) |
| COc1ccc2nc(C)cc(OCC(=O)Nc3ccccc3OC)c2c1 | 1.4 (≈ 0.493 µg/mL) |
| Cc1cc(/C=C/c2cccc(C(=O)O)c2)cc(Cl)c1OC[C@@H]1CCCN1C | 9.5 (≈ 3.67 µg/mL) |
| Nc1nonc1-c1nc2c(-c3ccccc3)nccc2n1C1CCNCC1 | 0.5 (≈ 0.181 µg/mL) |
| Cc1nc(-c2cccc(C(F)(F)F)c2)nc(N2CCNCC2)c1C | 0.5 (≈ 0.168 µg/mL) |
| COCCCNC(=N)c1ccc(NC(=O)c2ccc(C(=O)Nc3ccc(C(=N)NCCCOC)cc3)cc2)cc1 | 0.5 (≈ 0.272 µg/mL) |

| SMILES | MIC90 [µM] |
| --- | --- |
| O=C(O)c1ccccc1COc1ccccc1 | 0.5 (≈ 0.114 µg/mL) |
| Cc1cccc(-c2nc(Nc3ccncn3)c3sccc3n2)n1 | 0.3 (≈ 0.0961 µg/mL) |
| O=C(Nc1nc(-c2ccccn2)cs1)c1ccc(-n2cccn2)cc1 | 0.7 (≈ 0.243 µg/mL) |
| Cc1ccc(-n2nc(C)c3c(N4CCCNCC4)nc(C4CC4)nc32)cc1 | 0.8 (≈ 0.29 µg/mL) |
| COCCNc1nc(N2CCCC2)c2c(c1C#N)CCN(C)C2 | 0.8 (≈ 0.252 µg/mL) |
| CCCSc1ncccc1C(=O)Nc1ccccc1Nc1ccccc1 | 0.8 (≈ 0.291 µg/mL) |
| CCc1cc(=O)[nH]c(-n2nc(C)cc2NC(=O)c2ccc(C(C)(C)C)cc2)n1 | 0.8 (≈ 0.304 µg/mL) |
| COCCN1CCN(c2ccnc(-n3cnc4cc(C)c(C)cc43)n2)CC1 | 0.8 (≈ 0.293 µg/mL) |
| CC1CNC(c2ccc(NC(=O)c3ccc(C(=O)Nc4ccc(C5=NC(C)CN5)cc4)cc3)cc2)=N1 (configuration not stated) | 0.8 (≈ 0.384 µg/mL) |
| Cc1csc(NC(=O)CSc2nc(C)c(C)n2Cc2ccc(Cl)cc2)c1C#N | 0.9 (≈ 0.388 µg/mL) |
| O=C(c1cccc(-c2noc(-c3ccccc3)n2)c1)N1CCCCC1CCO (configuration not stated) | 0.9 (≈ 0.34 µg/mL) |
| Cc1ccc2nc(C(F)(F)F)c(C(=O)NCc3cc(Cl)cc(Cl)c3)n2c1 | 0.6 (≈ 0.241 µg/mL) |
| Cc1ccc2nc(C(F)(F)F)c(C(=O)NCc3cccs3)n2c1 | 1.2 (≈ 0.407 µg/mL) |
| CCc1ccc(CN2CCC3(CC2)OCCc2sccc23)s1 | 0.5 (≈ 0.167 µg/mL) |
| c1cc2c(s1)CCOC21CCN(Cc2ccc3c(c2)OCCO3)CC1 | 1.6 (≈ 0.572 µg/mL) |
| O=C(NC12CC3CC(CC(C3)C1)C2)c1cc2cc(Cl)ccc2[nH]1 | 0.8 (≈ 0.263 µg/mL) |
| CCOc1ccc(-c2nc(CNCCc3ccc(F)cc3)cs2)cc1.O=C(O)C(=O)O | 9.9 |
| N#Cc1cc(C(=O)COc2ccc(CC3SC(=O)NC3=O)cc2)ccc1N (configuration not stated) | 1.1 (≈ 0.42 µg/mL) |
| CCc1nc(N2CCNCC2)c2c(C)nn(-c3ccc(OC)cc3)c2n1 | 1.1 (≈ 0.388 µg/mL) |
| COc1ccc(-c2csc(NC(=O)c3cnc(SC)nc3)n2)cc1 | 1.1 (≈ 0.394 µg/mL) |
| O=C(NNC(=O)N1CCN(C(c2ccccc2)c2ccc(Cl)cc2)CC1)c1ccc([N+](=O)[O-])o1 (configuration not stated) | 1.1 (≈ 0.532 µg/mL) |
| Cc1ccc2nc(C(F)(F)F)c(C(=O)NCc3ccc4c(c3)OCO4)n2c1 | 1.8 (≈ 0.679 µg/mL) |
| COc1ccc2nc(C)cc(OCC(=O)NCc3ccccc3)c2c1 | 3.6 (≈ 1.21 µg/mL) |
| CCc1c(C)nc(-n2nc(C)cc2NC(=O)c2ccccc2SC)[nH]c1=O | 3.6 (≈ 1.38 µg/mL) |
| C[C@@H](NCCc1nc(-c2cn(C)c3ccccc23)no1)C1CCCCC1.Cl | 9.4 |

| SMILES | MIC90 [µM] |
| --- | --- |
| CC(C)c1ccc2oc(-c3ccc(NC(=O)c4cccnc4)cc3)nc2c1 | 1.2 (≈ 0.429 µg/mL) |
| Cc1ncc(C(=O)Nc2cccc(-c3cc(-c4c(Cl)cccc4Cl)no3)c2)c(-c2ccccc2)n1 | 1.2 (≈ 0.602 µg/mL) |
| Cc1ccc(CNC(=O)c2cnn3c2NC(c2ccc(C)cc2)CC3C(F)F)cc1 (configuration not stated) | 0.9 (≈ 0.369 µg/mL) |
| C=CCNCCS(=O)(=O)c1cccc(Nc2ccc(-c3ccc(OC)nc3)cn2)c1 | 1.3 (≈ 0.552 µg/mL) |
| Cc1ccc2nc(C)c(C(=O)NCc3ccco3)n2c1 | 1 (≈ 0.269 µg/mL) |
| CCCCS(=O)(=O)Nc1ccc2cnn(C)c2c1 | 0.5 (≈ 0.134 µg/mL) |
| N[C@@H]1CCN(c2nc(-c3ccccc3)nc3ccccc23)C1 | 1.4 (≈ 0.407 µg/mL) |
| COc1ccc(-c2nc(CN3CCCC3c3cccs3)cs2)cc1OC (configuration not stated) | 1.4 (≈ 0.541 µg/mL) |
| CN(Cc1nc2ccccc2s1)C(=O)c1cccc(NC(=O)c2cccs2)c1 | 1.4 (≈ 0.571 µg/mL) |
| O=C(Nc1nc(-c2cccnc2)cs1)c1ccc(Br)s1 | 1.4 (≈ 0.513 µg/mL) |
| CCOC(=O)c1c(-c2ccccc2)oc2ccc(O)c(CN3CCCCC3)c12 | 1.4 (≈ 0.531 µg/mL) |
| CCc1nn2c(C3CCCNC3)ccnc2c1-c1ccc(OC)cc1 (configuration not stated) | 1.5 (≈ 0.505 µg/mL) |
| c1ccc(Nc2nc(-c3ccccn3)cs2)nc1 | 0.9 (≈ 0.229 µg/mL) |
| COc1ccc(CCNc2cc(-c3ccccc3)nc3ncnn23)cc1 | 1 (≈ 0.345 µg/mL) |
| CCCc1cc(=O)[nH]c(-n2nc(C)cc2NC(=O)c2cc3ccccc3o2)n1 | 1.4 (≈ 0.528 µg/mL) |
| Cc1ccc(Nc2cc(C)nn2-c2nc(C)cc(O)n2)cc1 | 0.5 (≈ 0.148 µg/mL) |
| CCc1c(C)nc(-n2nc(C)cc2NC(=O)c2ccc(OC)cc2OC)[nH]c1=O | 1.2 (≈ 0.477 µg/mL) |
| Cc1cc(=O)[nH]c(-n2nc(C)cc2NC(=O)C2(c3ccc(Cl)cc3)CCCC2)n1 | 1.3 (≈ 0.535 µg/mL) |
| Cc1csc2nc(-c3ccccn3)nc(Nc3ccncn3)c12.O=C(O)C(F)(F)F | 1.3 |
| CCc1c(C)nc(-n2nc(C)cc2NC(=O)C(CC)c2ccccc2)[nH]c1=O (configuration not stated) | 1.2 (≈ 0.455 µg/mL) |
| CSc1ccccc1C(=O)Nc1nc(-c2ccccn2)cs1 | 3.8 (≈ 1.24 µg/mL) |
| O=C(c1ccccc1)N1CCN(c2ccccc2NC(=O)C(Cl)(Cl)Cl)CC1 | 1 (≈ 0.427 µg/mL) |
